Data from patent US20100160335A1, “PYRIDAZINONE DERIVATIVE AND PDE INHIBITOR CONTAINING THE SAME AS ACTIVE INGREDIENT” (KYORIN PHARMACEUTICAL CO., LTD., priority 2007, published 2010).
Where two headings read alike, the source gives them in different places.

How the values were obtained:
[1] = biological target: T1, PDE3A catalytic domain (PDE3Acat) (Homo sapiens, UniProt Q14432); assay: Phosphodiesterase inhibitory activity, PDE3 ([3H]cAMP, recombinant enzyme); assay type: biochemical; settings: 30° C., 20 minutes, read-out: IC50(μmol/L) PDE3
T1 construct: made in house; host or cells: Sf9 insect cells (baculovirus, Bac-to-Bac / Gateway)
T1 sequence (Q14432 674-1093 limits assumed): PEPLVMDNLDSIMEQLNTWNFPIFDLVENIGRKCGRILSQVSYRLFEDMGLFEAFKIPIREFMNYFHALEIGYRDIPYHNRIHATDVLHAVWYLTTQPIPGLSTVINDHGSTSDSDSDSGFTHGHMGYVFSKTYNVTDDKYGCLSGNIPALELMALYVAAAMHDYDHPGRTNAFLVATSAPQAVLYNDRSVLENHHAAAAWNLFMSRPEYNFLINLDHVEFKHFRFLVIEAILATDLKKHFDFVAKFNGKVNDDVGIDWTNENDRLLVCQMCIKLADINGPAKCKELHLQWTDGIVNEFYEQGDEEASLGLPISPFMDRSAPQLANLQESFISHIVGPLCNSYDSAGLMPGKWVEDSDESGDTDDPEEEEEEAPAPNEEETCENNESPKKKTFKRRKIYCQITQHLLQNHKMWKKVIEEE

PDE4Bcat = biological target: T2, PDE4Bcat (Homo sapiens, UniProt Q07343); assay: Phosphodiesterase inhibitory activity, PDE4 ([3H]cAMP, recombinant enzyme); assay type: biochemical; settings: 30° C., 20 minutes, read-out: IC50(μmol/L) PDE4
T2 construct: made in house; host or cells: Sf9 insect cells (baculovirus, Bac-to-Bac / Gateway)
T2 sequence (Q07343 330-659 limits assumed): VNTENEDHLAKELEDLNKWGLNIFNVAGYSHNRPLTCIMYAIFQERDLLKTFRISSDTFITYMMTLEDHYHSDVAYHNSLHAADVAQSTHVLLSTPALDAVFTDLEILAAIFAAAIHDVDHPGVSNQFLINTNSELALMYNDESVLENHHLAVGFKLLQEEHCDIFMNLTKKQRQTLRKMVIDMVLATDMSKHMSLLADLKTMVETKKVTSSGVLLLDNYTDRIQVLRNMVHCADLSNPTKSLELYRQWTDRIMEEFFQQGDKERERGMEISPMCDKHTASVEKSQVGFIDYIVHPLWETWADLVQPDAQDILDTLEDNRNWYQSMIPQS

[2] = tested on: histamine-induced bronchoconstriction in guinea pigs; assay: Histamine-induced bronchoconstriction reaction in guinea pigs; assay type: in vivo; settings: Cavia porcellus, iv, 0.5 min, guinea pig, measured 30 seconds after administration, read-out: Inhibition rate (histamine-induced bronchoconstriction); for inhibition in vivo at 0.1 mg/kg: compound 0.1 mg/kg, i.v. (values in [ ]); for inhibition in vivo at 0.3 mg/kg: compound 0.3 mg/kg, i.v.
Description: Guinea pigs were anesthetized with pentobarbital (30 mg/kg, i.p.). A cannula for intravenous administration was inserted into the left external jugular vein, a cannula for collecting blood and measuring blood pressure was inserted into the right internal carotid artery, and a tracheal cannula was inserted into the trachea. The guinea pigs were maintained on artificial respiration under the conditions of 60 times/min and 10 mL/kg/stroke. The airflow from the side branch of the tracheal cannula was measured by a bronchospasm transducer (Ugo-Basile) and recorded on a computer via Power Lab (ADInstruments Japan). The guinea pigs were immobilized with gallamine (10 mg/kg, i.v.), and histamine (12.5 μg/kg, i.v.) was administered at 10-minute intervals. After the histamine-induced bronchoconstriction became stable, the compound (0.3 mg/kg, i.v.) was administered. The histamine-induced bronchoconstriction reaction was measured 30 seconds after the compound administration to examine the bronchoconstriction inhibitory activity of the compound. The bronchoconstriction was recorded as the airflow value, and the results were represented by the ratio of the maximum value of the histamine- induced airflow 30 seconds after the administration to the maximum value of the airflow before the administration. Also, the test compounds dissolved in DMSO were used. Further, the indications were as follows: inhibition rate≧90% (+++), 90%>inhibition rate≧80% (++), and 80%>inhibition rate≧70% (+). [ ] means the results in the case of 0.1 mg/kg, i.v.

[3] = tested on: LPS acute inflammation model in rats; assay: LPS acute inflammation model in rats (total leukocytes in BALF); assay type: in vivo; settings: BALF 3 hours after LPS; for inhibition in vivo at 1 mg/kg: Rattus norvegicus, Leukocyte, po, 3 h, read-out: Inhibition rate (total number of leukocytes in BALF); for Inhibition rate (total number of leukocytes in BALF): rat
Description: 1 mg/kg of the compound was orally administered to rat one hour before inhalation of a lipopolysaccharide from E. coli serotype 055:B5 (LPS), and the rat was made to inhale 50 mL of the LPS solution nebulized using a nebulizer for 30 minutes. Then, 3 hours after the LPS inhalation, the rat was euthanized with 20% urethane (5 ml/rat, i.p.). 5 ml of physiological saline for bronchoalveolar lavage was injected into the bronchial tubes and alveoli through the airway, and the bronchial tubes and alveoli were washed three times using a 5 mL syringe. This operation was repeated twice, and the solution was collected as bronchoalveolar lavage fluid (BALF). The collected BALF was centrifuged at 1200 rpm and 4° C. for 10 minutes (Hirtachi; himac CR 5 DL). The pellet was re-suspended in 10 mL of a 0.1% bovine serum albumin-physiological saline, and an equivalent amount of Turk's solution was added thereto to stain leukocytes. The total number of leukocytes was counted under a microscope to calculate the inhibition rate. Further, the indications were as follows: inhibition rate≧90% (++) and 90%>inhibition rate≧50% (+). [ ] means the results of the drug administration after fasting overnight.

[4] = 1 mg/kg orally one hour before LPS inhalation
[5] = 1 mg/kg orally after fasting overnight (values in [ ]), one hour before LPS inhalation, 1 mg/kg
[6] = 1 mg/kg orally after fasting overnight (values in [ ]), one hour before LPS inhalation

Row | SMILES | IC50 [1] [µmol/L] | IC50 (PDE4Bcat) [µmol/L] | inhibition in vivo at 0.1 mg/kg [2] [%] | inhibition in vivo at 1 mg/kg [3, 4] [%] | inhibition in vivo at 0.3 mg/kg [2] [%] | Inhibition rate (total number of leukocytes in BALF) [3, 5] | Inhibition rate (total number of leukocytes in BALF) [3, 4] | inhibition in vivo at 1 mg/kg [3, 6] [%]
1 | CCc1ccc2c(C3=NN(CCCCOc4ccc(C5=NNC(=O)CC5C)cc4)C(=O)CC3C)ccc(OC)c2n1 (stereo not drawn) [Example 312, 6-(2-Ethyl-8-methoxyquinolin-5-yl)-5-methyl-2-[4-[4-(4-methyl-6-oxo-1,4,5,6-tetrahydropyridazin-3-yl)phenoxy]butyl]-4,5-dihydro-2H-pyridazin-3-one] | 0.1 to 1 | < 0.1 | 70 to 80 | 50 to 90 | – | – | – | –
2 | CCc1ccc2c(-c3ccc(=O)n(CCCCOc4ccc(C5=NNC(=O)CC5C)c(F)c4F)n3)ccc(OC)c2n1 (stereo not drawn) [Example 289, 6-(2-Ethyl-8-methoxyquinolin-5-yl)-2-[4-[2,3-difluoro-4-(4-methyl-6-oxo-1,4,5,6-tetrahydropyridazin-3-yl)phenoxy]butyl]-2H-pyridazin-3-one] | < 0.1 | < 0.1 | – | 50 to 90 | ≥ 90 | – | – | –
3 | CCc1ccc2c(-c3ccc(=O)n(CCCCOc4ccc(C5=NNC(=O)CC5C)c(F)c4F)n3)ccc(OC)c2n1 (single isomer, unassigned; (+)) [Example 322, (+)-6-(2-ethyl-8-methoxyquinolin-5-yl)-2-[4-[2,3-difluoro-4-(4-methyl-6-oxo-1,4,5,6-tetrahydropyridazin-3-yl)phenoxy]butyl]-2H-pyridazin-3-one] | < 0.1 | < 0.1 | – | – | – | [+] (90%>inhibition rate≧50% (+)) | – | –
4 | CCc1ccc2c(C3=NN(CCCCOc4ccc(C5=NNC(=O)CC5C)cc4)C(=O)CC3C)ccc(OC)c2n1 (single isomer, unassigned) [Example 340, 6-(2-Ethyl-8-methoxyquinolin-5-yl)-5-methyl-2-[4-[4-(4-methyl-6-oxo-1,4,5,6-tetrahydropyridazin-3-yl)phenoxy]butyl]-4,5-dihydro-2H-pyridazin-3-one] | < 0.1 | < 0.1 | – | – | ≥ 90 | – | + (90%>inhibition rate≧50% (+)) | –
5 | CCc1ccc2c(-c3ccc(=O)n(CCCCOc4ccc(C5=NNC(=O)CC5)c(F)c4F)n3)ccc(OC)c2n1 [Example 283, 6-(2-Ethyl-8-methoxyquinolin-5-yl)-2-[4-[2,3-difluoro-4-(6-oxo-1,4,5,6-tetrahydropyridazin-3-yl)phenoxy]butyl]-2H-pyridazin-3-one] | < 0.1 | 0.1 to 1 | – | – | – | – | – | ≥ 90
6 | COc1ccc(-c2ccc(=O)n(CCCCOc3ccc(C4=NNC(=O)CC4)c(F)c3F)n2)c2cccnc12 [Example 320, 2-[4-[2,3-Difluoro-4-(6-oxo-1,4,5,6-tetrahydropyridazin-3-yl)phenoxy]butyl]-6-(8-methoxyquinolin-5-yl)-2H-pyridazin-3-one] | < 0.1 | < 0.1 | – | – | ≥ 90 | – | – | 50 to 90
7 | CCc1ccc2c(C3=NN(CCCCOc4ccc(C5=NNC(=O)CC5C)cc4)C(=O)CC3C)ccc(OC)c2n1 (single isomer, unassigned) [Example 339, 6-(2-Ethyl-8-methoxyquinolin-5-yl)-5-methyl-2-[4-[4-(4-methyl-6-oxo-1,4,5,6-tetrahydropyridazin-3-yl)phenoxy]butyl]-4,5-dihydro-2H-pyridazin-3-one] | 1 to 10 | < 0.1 | – | 50 to 90 | – | – | – | –
8 | CCc1ccc2c(-c3ccc(=O)n(CCCCOc4ccc(C5=NNC(=O)CC5C)c(F)c4F)n3)ccc(OC)c2n1 (single isomer, unassigned; (-)) [Example 323, (−)-6-(2-ethyl-8-methoxyquinolin-5-yl)-2-[4-[2,3-difluoro-4-(4-methyl-6-oxo-1,4,5,6-tetrahydropyridazin-3-yl)phenoxy]butyl]-2H-pyridazin-3-one] | < 0.1 | < 0.1 | – | – | 70 to 80 | [++] (inhibition rate≧90% (++)) | – | –
9 | COc1ccc(-c2ccc(=O)n(CCCCOc3ccc(C4=NNC(=O)CC4)c(F)c3F)n2)c2ccc(C)nc12 [Example 271, 2-[4-[2,3-Difluoro-4-(6-oxo-1,4,5,6-tetrahydropyridazin-3-yl)phenoxy]butyl]-6-(8-methoxy-2-methylquinolin-5-yl)-2H-pyridazin-3-one] | < 0.1 | < 0.1 | – | – | ≥ 90 | – | – | 50 to 90
10 | CCc1ccc2c(C3=NN(CCCCOc4ccc(C5=NNC(=O)CC5)c(F)c4F)C(=O)CC3C)ccc(OC)c2n1 (stereo not drawn) [Example 299, 6-(2-Ethyl-8-methoxyquinolin-5-yl)-5-methyl-2-[4-[2,3-difluoro-4-(6-oxo-1,4,5,6-tetrahydropyridazin-3-yl)phenoxy]butyl]-4,5-dihydro-2H-pyridazin-3-one] | < 0.1 | < 0.1 | ≥ 90 | – | – | – | – | 50 to 90
11 | COc1ccc(C2=NN(CCCCOc3ccc(C4=NNC(=O)CC4C)cc3)C(=O)CC2C)c2[nH]c(C(F)(F)F)nc12 (stereo not drawn) [Example 314, 6-(4-Methoxy-2-trifluoromethyl-1H-benzimidazol-7-yl)-5-methyl-2-[4-[4-(4-methyl-6-oxo-1,4,5,6-tetrahydropyridazin-3-yl)phenoxy]butyl]-4,5-dihydro-2H-pyridazin-3-one] | < 0.1 | < 0.1 | – | 50 to 90 | 80 to 90 | – | – | –
12 | CCc1ccc2c(C3=NN(CCCCOc4ccc(C5=NNC(=O)CC5)cc4F)C(=O)CC3C)ccc(OC)c2n1 (stereo not drawn) [Example 298, 6-(2-Ethyl-8-methoxyquinolin-5-yl)-5-methyl-2-[4-[2-fluoro-4-(6-oxo-1,4,5,6-tetrahydropyridazin-3-yl)phenoxy]butyl]-4,5-dihydro-2H-pyridazin-3-one] | < 0.1 | < 0.1 | ≥ 90 | – | – | – | – | –
13 | COc1ccc(-c2ccc(=O)n(CCCCOc3ccc(C4=NNC(=O)CC4C)c(F)c3F)n2)c2cccnc12 (stereo not drawn) [Example 319, 2-[4-[2,3-Difluoro-4-(4-methyl-6-oxo-1,4,5,6-tetrahydropyridazin-3-yl)phenoxy]butyl]-6-(8-methoxyquinolin-5-yl)-2H-pyridazin-3-one] | < 0.1 | 0.1 to 1 | ≥ 90 | – | – | – | – | 50 to 90
14 | COc1ccc(-c2ccc(=O)n(CCCCOc3ccc(C4=NNC(=O)CC4)c(F)c3F)n2)c2nc(C(F)(F)F)[nH]c12 [Example 278, 2-[4-[2,3-Difluoro-4-(6-oxo-1,4,5,6-tetrahydropyridazin-3-yl)phenoxy]butyl]-6-(4-methoxy-2-trifluoromethyl-1H-benzimidazol-7-yl)-2H-pyridazin-3-one] | < 0.1 | 1 to 10 | – | – | ≥ 90 | – | – | –
15 | CCc1ccc2c(-c3ccc(=O)n(CCCCOc4ccc(C5=NNC(=O)C5(C)C)c(F)c4F)n3)ccc(OC)c2n1 [Example 290, 6-(2-Ethyl-8-methoxyquinolin-5-yl)-2-[4-[2,3-difluoro-4-(4,4-dimethyl-5-oxo-4,5-dihydro-1H-pyrazol-3-yl)phenoxy]butyl]-2H-pyridazin-3-one] | < 0.1 | < 0.1 | – | – | ≥ 90 | – | – | –
